Source: ChEMBL document CHEMBL4414679, “Discovery of 4,6-pyrimidinediamine derivatives as novel dual EGFR/FGFR inhibitors aimed EGFR/FGFR1-positive NSCLC” (Eur J Med Chem, 2020)
Active and inactive are the calls of the source. The calls are words filed in the database; no cut-off is given here.

How the values were obtained:
[1] = MRT in Sprague-Dawley rat at 30 mg/kg, po measured upto 24 hrs by UPLC-MS/MS; format: ADME, organism-based; conditions: in vivo
[2] = Induction of apoptosis in gefitinib-insensitive human HCC827GR cells assessed as necrotic cells at 2.5 uM measured after 24 hrs by Annexin-V/propidium iodide staining-based flow cytometric analysis (reference value: 5.8%); format: functional
[3] = Induction of apoptosis in gefitinib-insensitive human HCC827GR cells assessed as early apoptotic cells at 10 uM measured after 24 hrs by Annexin-V/propidium iodide staining-based flow cytometric analysis (reference value: 1.9%); format: functional
[4] = AUC (0 to 24 hrs) in Sprague-Dawley rat at 30 mg/kg, po measured upto 24 hrs by UPLC-MS/MS; format: ADME, organism-based; set-up: time < 24 hr, dose 30 mg/kg, route oral; conditions: in vivo
[5] = target: T1, Fibroblast growth factor receptor 1 (Homo sapiens, UniProt P11362); test: Inhibition of FGFR in serum-starved human H520 cells assessed as reduction in FGFR-induced AKT phosphorylation upto 10 uM incubated for 1 hr by Western blot analysis
[6] = target: T2, Epidermal growth factor receptor (Homo sapiens, UniProt P00533); test: Inhibition of EGFR in human PC9 cells assessed as reduction in EGF-induced AKT phosphorylation upto 10 uM incubated for 1 hr by Western blot analysis; format: cell-based
[7] = Induction of apoptosis in gefitinib-insensitive human HCC827GR cells assessed as early apoptotic cells at 2.5 uM measured after 24 hrs by Annexin-V/propidium iodide staining-based flow cytometric analysis (reference value: 1.9%); format: functional
[8] = target: Vascular endothelial growth factor receptor 1 (Homo sapiens) (UniProt P17948); test: Inhibition of N-terminal GST tagged human FLT1 cytoplasmic domain (781 to 1338 AA) expressed in baculovirus at 10 uM using FAM-labelled peptide as substrate pre-incubated for 10 mins followed by substrate addition by mobility shift assay relative to control
[9] = Induction of apoptosis in gefitinib-insensitive human HCC827GR cells assessed as necrotic cells at 1 uM measured after 24 hrs by Annexin-V/propidium iodide staining-based flow cytometric analysis (reference value: 5.8%); format: functional
[10] = Antitumor activity against human HCC827GR cells xenografted in BALB/c nude mouse assessed as reduction in tumor weight at 15 mg/kg, ip dosed every 2 days (reference value: 0.82 +/- 0.06 g); format: functional
[11] = target: Tyrosine-protein kinase JAK2 (Homo sapiens) (UniProt O60674); test: Inhibition of N-terminal GST tagged human JAK2 catalytic domain (826 to 1132 AA) expressed in baculovirus at 10 uM using FAM-labelled peptide as substrate pre-incubated for 10 mins followed by substrate addition by mobility shift assay relative to control
[12] = target: CDK7/Cyclin H/MNAT1 (Homo sapiens) (UniProt P51946+P50613+P51948); test: Inhibition of full length N-terminal GST-tagged human CDK7 (1 to 346 AA) coexpressed with CyclinH (1 to 323 AA)and MAT1 (1 to 309) in baculovirus at 10 uM using FAM-labelled peptide as substrate pre-incubated for 10 mins followed by substrate addition by mobility shift assay relative to control; format: protein-complex assay
[13] = Induction of apoptosis in gefitinib-insensitive human HCC827GR cells assessed as late apoptotic cells at 10 uM measured after 24 hrs by Annexin-V/propidium iodide staining-based flow cytometric analysis (reference value: 1.5%); format: functional
NCI-H226 [14] = test: Induction of apoptosis in human NCI-H226 cells assessed as late apoptotic cells at 10 uM measured after 24 hrs by Annexin-V/propidium iodide staining-based flow cytometric analysis (reference value: 2.8%); format: functional
NCI-H226 [15] = test: Induction of apoptosis in human NCI-H226 cells assessed as viable cells at 10 uM measured after 24 hrs by Annexin-V/propidium iodide staining-based flow cytometric analysis (reference value: 93.4%); format: functional; conditions: NCI-H226, 24 h, read-out: Activity
[16] = target: T1, Fibroblast growth factor receptor 1; test: Inhibition of FGFR1 in gefitinib-insensitive human HCC827GR cells assessed as reduction in FGF-induced Akt phosphorylation upto 10 uM measured after 2 hrs by western blot analysis
[17] = target: T2, Epidermal growth factor receptor; test: Inhibition of N-terminal GST-tagged human EGFR cytoplasmic domain (669-1210 AA) expressed in baculovirus using FAM-labelled peptide as substrate pre-incubated for 10 mins followed by substrate addition by mobility shift assay
[18] = target: T1, Fibroblast growth factor receptor 1; test: Inhibition of FGF-induced FGFR1 phosphorylation in serum-starved human H520 cells upto 10 uM incubated for 1 hr by Western blot analysis
[19] = target: CDK4/Cyclin D3 (Homo sapiens) (UniProt P11802+P30281); test: Inhibition of N-terminal GST tagged truncated human CDK4 (1 to 303 AA) coexpressed with CyclinD3 (1 to 292 AA) in baculovirus at 10 uM using FAM-labelled peptide as substrate pre-incubated for 10 mins followed by substrate addition by mobility shift assay relative to control; format: protein-complex assay
Homo sapiens = test: Antitumor activity against human HCC827GR cells xenografted in BALB/c nude mouse assessed as reduction in tumor volume at 15 mg/kg, ip dosed measured every 2 days upto 25 days; format: functional, organism-based
NCI-H1581 = test: Antiproliferative activity against human NCI-H1581 cells incubated for 48 hrs by MTT assay; format: functional, cell-based; conditions: NCI-H1581, 48 h
[20] = target: T2, Epidermal growth factor receptor; test: Inhibition of EGF-induced EGFR phosphorylation in serum-starved human PC9 cells upto 10 uM incubated for 1 hr by Western blot analysis
PC-9 = test: Antiproliferative activity against human PC9 cells incubated for 48 hrs by MTT assay; format: functional, cell-based; conditions: PC-9, 48 h
NCI-H226 [21] = test: Induction of apoptosis in human NCI-H226 cells assessed as necrotic cells at 10 uM measured after 24 hrs by Annexin-V/propidium iodide staining-based flow cytometric analysis (reference value: 3%); format: functional
[22] = target: Epidermal growth factor receptor (Homo sapiens, UniProt P00533, L858R); test: Inhibition of recombinant human EGFR L858R mutant expressed in baculovirus using FAM-labelled peptide as substrate pre-incubated for 10 mins followed by substrate addition by mobility shift assay
[23] = target: T2, Epidermal growth factor receptor; test: Inhibition of N-terminal GST-tagged human EGFR cytoplasmic domain (669-1210 AA) expressed in baculovirus at 10 uM using FAM-labelled peptide as substrate pre-incubated for 10 mins followed by substrate addition by mobility shift assay relative to control
NCI-H226 [24] = test: Induction of apoptosis in human NCI-H226 cells assessed as early apoptotic cells at 10 uM measured after 24 hrs by Annexin-V/propidium iodide staining-based flow cytometric analysis (reference value: 0.8%); format: functional
NCI-H520 = test: Antiproliferative activity against human NCI-H520 cells incubated for 48 hrs by MTT assay; format: functional, cell-based; conditions: NCI-H520, 48 h
[25] = target: Vascular endothelial growth factor receptor 3 (Homo sapiens) (UniProt P35916); test: Inhibition of N-terminal GST tagged human FLT4 cytoplasmic domain (798 to 1298 AA) expressed in baculovirus at 10 uM using FAM-labelled peptide as substrate pre-incubated for 10 mins followed by substrate addition by mobility shift assay relative to control
Vascular endothelial growth factor receptor 3 (Homo sapiens), sequence (P35916 whole entry, the tested form may be a part): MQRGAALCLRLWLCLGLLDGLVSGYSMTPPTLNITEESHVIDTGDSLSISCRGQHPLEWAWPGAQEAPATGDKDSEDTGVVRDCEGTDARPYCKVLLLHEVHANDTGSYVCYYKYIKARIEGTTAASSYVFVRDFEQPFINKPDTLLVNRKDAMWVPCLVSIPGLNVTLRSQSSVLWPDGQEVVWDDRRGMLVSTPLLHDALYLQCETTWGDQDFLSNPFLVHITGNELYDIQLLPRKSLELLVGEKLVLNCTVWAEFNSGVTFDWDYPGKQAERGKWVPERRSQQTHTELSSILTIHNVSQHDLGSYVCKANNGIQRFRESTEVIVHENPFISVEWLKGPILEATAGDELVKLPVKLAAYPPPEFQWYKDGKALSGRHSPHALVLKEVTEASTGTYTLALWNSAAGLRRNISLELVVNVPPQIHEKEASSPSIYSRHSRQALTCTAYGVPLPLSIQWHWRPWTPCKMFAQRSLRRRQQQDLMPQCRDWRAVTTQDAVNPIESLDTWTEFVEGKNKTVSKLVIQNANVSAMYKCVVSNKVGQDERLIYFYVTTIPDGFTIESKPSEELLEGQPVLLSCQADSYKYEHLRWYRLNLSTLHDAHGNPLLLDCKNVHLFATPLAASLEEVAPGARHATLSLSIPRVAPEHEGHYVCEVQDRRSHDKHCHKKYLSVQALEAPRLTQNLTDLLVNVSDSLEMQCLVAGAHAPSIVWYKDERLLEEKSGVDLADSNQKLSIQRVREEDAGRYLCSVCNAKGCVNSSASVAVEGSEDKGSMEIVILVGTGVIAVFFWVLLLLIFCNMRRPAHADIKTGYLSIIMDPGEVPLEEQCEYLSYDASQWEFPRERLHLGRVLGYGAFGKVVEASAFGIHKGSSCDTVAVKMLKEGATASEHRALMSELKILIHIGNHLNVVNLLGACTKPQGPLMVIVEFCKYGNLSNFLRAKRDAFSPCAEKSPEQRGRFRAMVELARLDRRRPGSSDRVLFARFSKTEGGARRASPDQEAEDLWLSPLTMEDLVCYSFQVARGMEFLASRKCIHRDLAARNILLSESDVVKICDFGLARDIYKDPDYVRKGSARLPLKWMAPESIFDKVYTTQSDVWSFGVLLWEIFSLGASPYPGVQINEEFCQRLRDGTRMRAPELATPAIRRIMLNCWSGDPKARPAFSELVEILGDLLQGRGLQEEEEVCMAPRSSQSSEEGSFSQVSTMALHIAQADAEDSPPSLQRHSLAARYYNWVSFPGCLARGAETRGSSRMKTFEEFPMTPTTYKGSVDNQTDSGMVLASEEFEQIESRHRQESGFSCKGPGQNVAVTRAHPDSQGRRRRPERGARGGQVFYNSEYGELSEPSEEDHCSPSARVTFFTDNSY

T2 sequence (P00533 whole entry): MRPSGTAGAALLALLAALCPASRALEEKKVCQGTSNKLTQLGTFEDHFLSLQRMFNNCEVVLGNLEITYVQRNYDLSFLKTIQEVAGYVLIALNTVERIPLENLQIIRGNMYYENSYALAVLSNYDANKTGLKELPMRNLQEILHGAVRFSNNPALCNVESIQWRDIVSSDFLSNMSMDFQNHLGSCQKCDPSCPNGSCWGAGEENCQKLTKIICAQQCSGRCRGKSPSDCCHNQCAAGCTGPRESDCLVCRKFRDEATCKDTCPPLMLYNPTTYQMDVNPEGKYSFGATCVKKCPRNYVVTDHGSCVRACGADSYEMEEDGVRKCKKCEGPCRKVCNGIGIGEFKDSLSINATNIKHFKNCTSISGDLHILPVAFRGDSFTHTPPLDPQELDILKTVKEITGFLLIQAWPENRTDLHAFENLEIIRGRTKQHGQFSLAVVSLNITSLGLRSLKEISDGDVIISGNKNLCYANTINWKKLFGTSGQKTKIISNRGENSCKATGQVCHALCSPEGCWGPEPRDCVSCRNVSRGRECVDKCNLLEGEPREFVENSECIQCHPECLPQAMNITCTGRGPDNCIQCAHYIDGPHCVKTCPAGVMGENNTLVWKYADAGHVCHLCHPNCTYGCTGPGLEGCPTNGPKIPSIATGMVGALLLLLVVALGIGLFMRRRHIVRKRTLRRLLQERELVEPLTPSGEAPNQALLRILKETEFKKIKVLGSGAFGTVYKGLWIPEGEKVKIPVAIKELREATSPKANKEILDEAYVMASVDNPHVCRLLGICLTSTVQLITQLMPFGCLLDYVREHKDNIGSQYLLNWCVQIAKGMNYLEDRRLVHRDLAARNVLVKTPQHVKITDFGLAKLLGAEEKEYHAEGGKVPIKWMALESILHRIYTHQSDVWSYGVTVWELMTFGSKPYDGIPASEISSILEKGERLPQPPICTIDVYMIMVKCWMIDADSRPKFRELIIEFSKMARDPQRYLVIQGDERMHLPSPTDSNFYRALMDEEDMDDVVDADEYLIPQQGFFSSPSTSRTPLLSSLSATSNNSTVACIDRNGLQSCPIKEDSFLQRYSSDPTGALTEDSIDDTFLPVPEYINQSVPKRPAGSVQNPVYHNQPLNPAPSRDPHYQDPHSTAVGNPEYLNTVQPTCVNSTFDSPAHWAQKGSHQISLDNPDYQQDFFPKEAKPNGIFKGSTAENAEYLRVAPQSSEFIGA
T1 sequence (P11362 22-822 limits assumed): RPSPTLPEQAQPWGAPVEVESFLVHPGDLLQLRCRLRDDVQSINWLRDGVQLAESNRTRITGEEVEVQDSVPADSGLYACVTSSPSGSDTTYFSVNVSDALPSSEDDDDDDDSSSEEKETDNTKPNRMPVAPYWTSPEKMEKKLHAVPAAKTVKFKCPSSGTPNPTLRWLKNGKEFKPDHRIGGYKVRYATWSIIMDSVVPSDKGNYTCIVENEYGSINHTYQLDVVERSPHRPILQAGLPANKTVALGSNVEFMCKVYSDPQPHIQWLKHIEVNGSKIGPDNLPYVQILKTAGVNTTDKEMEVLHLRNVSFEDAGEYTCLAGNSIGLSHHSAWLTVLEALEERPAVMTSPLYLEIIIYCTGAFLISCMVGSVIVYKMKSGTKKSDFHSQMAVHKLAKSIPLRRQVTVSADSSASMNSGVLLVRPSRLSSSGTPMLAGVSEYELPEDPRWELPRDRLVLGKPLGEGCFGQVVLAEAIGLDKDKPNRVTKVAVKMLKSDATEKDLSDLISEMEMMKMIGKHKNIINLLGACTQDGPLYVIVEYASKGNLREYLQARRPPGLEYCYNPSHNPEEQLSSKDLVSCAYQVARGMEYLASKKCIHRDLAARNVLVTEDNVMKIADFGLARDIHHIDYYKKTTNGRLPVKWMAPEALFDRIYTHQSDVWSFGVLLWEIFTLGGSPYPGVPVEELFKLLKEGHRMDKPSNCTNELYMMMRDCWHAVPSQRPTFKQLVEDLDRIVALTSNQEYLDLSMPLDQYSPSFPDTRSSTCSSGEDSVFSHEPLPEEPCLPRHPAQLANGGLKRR
Vascular endothelial growth factor receptor 1 (Homo sapiens), sequence (P17948 whole entry, the tested form may be a part): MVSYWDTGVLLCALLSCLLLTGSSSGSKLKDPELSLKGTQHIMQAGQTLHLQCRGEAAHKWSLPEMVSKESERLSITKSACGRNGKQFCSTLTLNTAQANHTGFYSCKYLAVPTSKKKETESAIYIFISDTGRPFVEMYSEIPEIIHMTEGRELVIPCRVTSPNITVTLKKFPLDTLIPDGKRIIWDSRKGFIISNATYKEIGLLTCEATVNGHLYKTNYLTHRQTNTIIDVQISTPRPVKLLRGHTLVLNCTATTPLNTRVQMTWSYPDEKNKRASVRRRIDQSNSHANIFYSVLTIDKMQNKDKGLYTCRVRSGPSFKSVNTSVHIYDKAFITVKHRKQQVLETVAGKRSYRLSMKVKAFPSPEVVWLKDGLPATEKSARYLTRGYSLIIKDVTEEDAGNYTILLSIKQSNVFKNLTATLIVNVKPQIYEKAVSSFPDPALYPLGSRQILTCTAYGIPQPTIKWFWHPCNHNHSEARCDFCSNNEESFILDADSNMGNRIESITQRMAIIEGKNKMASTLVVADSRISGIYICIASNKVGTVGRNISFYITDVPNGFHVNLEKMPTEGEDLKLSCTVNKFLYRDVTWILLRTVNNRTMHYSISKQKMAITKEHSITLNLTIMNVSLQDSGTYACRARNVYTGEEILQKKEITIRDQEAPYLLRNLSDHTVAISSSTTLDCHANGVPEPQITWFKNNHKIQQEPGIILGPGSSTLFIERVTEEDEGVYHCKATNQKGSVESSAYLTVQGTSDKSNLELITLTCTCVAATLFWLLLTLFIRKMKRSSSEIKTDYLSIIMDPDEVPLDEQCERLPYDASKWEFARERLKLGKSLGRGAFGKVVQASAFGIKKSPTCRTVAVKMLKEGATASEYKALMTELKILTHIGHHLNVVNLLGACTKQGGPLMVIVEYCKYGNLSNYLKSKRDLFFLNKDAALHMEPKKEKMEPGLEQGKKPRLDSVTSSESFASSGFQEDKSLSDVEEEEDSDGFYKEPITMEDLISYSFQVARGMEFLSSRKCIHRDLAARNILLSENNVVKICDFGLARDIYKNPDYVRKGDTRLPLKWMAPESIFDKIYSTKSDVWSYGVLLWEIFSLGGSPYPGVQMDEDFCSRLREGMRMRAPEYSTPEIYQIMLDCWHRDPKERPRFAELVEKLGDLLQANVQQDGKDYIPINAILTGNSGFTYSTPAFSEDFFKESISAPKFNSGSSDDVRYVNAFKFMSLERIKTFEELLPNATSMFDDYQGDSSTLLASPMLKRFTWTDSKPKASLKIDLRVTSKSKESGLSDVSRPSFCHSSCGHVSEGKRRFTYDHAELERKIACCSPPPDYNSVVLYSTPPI

**Q.** Which results are given for `COc1ccc(OC)c(Nc2cc(NC(=O)Nc3c(Cl)cccc3Cl)ncn2)c1`?
**A.** MRT [1]: 6.73 h; Activity [2]: 4.5%; Activity [3]: 13%; AUC(0-t) at 24 h [4]: 9690 ng·h/mL; inhibition [5]: Active; inhibition [6]: Active; Activity [7]: 2.5%; inhibition [8]: 27.6%; Activity [9]: 3.6%; Activity [10]: 0.41 g; inhibition [11]: 13.9%; inhibition [12]: 22.3%; Activity [13]: 30.1%; Activity (NCI-H226 [14]): 11.9%; viability at 10 µM (NCI-H226 [15]): 71.9%; inhibition [16]: Active; IC50 [17]: 202 nM; inhibition [18]: Active; inhibition [19]: 12.5%; Activity (Homo sapiens): Active; IC50 (NCI-H1581): 2530 nM; inhibition [20]: Active; IC50 (PC-9): 1340 nM; Activity (NCI-H226 [21]): 11.8%; IC50 [22]: 39 nM; inhibition [23]: 92.7%; Activity (NCI-H226 [24]): 4.4%; IC50 (NCI-H520): 3030 nM; inhibition [25]: 43.6%
